The record followed here is US4921855A, “New Histidyl amino acid derivatives, and pharmaceutical composition comprising the same” (Fujisawa Pharmaceutical Co., Ltd., priority 1987, dated 1990).

This test addresses T1, renin (Homo sapiens, UniProt P00797).
T1 construct: endogenous renin and angiotensinogen in plasma; from tissue; host or cells: pooled human plasma (EDTA) from male volunteers
T1 sequence (P00797 67-406): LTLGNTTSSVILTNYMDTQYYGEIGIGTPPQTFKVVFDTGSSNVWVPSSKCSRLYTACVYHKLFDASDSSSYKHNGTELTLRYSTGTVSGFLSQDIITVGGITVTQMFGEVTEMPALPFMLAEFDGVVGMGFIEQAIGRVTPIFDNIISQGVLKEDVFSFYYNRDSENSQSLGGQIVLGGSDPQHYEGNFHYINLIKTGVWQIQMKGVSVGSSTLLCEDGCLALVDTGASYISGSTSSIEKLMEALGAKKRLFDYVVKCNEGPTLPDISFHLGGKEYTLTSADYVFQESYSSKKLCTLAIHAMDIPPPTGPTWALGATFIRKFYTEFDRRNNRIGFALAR
Briefly: Inhibition of human plasma renin activity (angiotensin I formation, RIA). Type of test: biochemical. As to conditions: endogenous renin and angiotensinogen, pH 6.0, 37° C, 90 minutes, RIA of Ang I. How it is done:
Human plasma was collected from male volunteers pretreated with no drugs and used as a pool. Disodium salt of ethylenediaminetetraacetic acid (EDTA) was used as the anticoagulant. Plasma renin activity was measured as the rate of angiotensin I (Ang I) formation after incubation (37° C) of the endogenous renin and angiotensinogen in plasma at pH 6.0. The incubation mixture contained 250 μl of plasma, 5 μl of (phenylmethyl)sulfonyl fluoride, 30 μl of buffer (sodium, potassium-phosphate, pH 6.0), and 15 μl of an appropriate concentration of test compound in 50% ethyl alcohol-water vehicle. The Ang I formed after 90 minutes of incubation was measured by radioimmunoassay (RIA) which was carried out with a commercial kit, RENCTK 100 (manufactured by Commissariat A L'energic Atomique). Samples were incubated in duplicate and each tube was measured in duplicate in the RIA. Percentage inhibition of plasma renin activity was calculated by comparing the amount of Ang I produced with and without a test compound. The concentration of test compound that inhibited plasma renin activity by 50% (IC50) was determined by Probit method.
For orientation: IC50 means the midpoint of a concentration-inhibition curve. As for `CC(C)CC[C@H](O)[C@H](CC1CCCCC1)NC(=O)[C@H](Cc1c[nH]cn1)NC(=O)[C@H](Cc1ccccc1)OC(=O)N1CCOCC1` [(1)], the half-maximal inhibitory concentration (IC50) was determined as 19 nM.

For `CC(C)CC[C@H](O)[C@H](CC1CCCCC1)NC(=O)[C@H](Cc1c[nH]cn1)N(C)C(=O)[C@H](Cc1ccccc1)OC(=O)N1CCOCC1` [(2)], inhibition was half-maximal at 80 nM (IC50).

`COC(=O)CN(C)C(=O)O[C@@H](Cc1ccccc1)C(=O)N(C)[C@@H](Cc1c[nH]cn1)C(=O)N[C@@H](CC1CCCCC1)[C@@H](O)CCC(C)C` [(3)]: the IC50 came out at 33 nM.

With `COC(=O)[C@H]1CCCN1C(=O)O[C@@H](Cc1ccccc1)C(=O)N(C)[C@@H](Cc1c[nH]cn1)C(=O)N[C@@H](CC1CCCCC1)[C@@H](O)CCC(C)C` [(4)], half-maximal inhibition (IC50) was put at 13 nM.

In turn, `CC(C)CC[C@H](O)[C@H](CC1CCCCC1)NC(=O)[C@H](Cc1c[nH]cn1)N(C)C(=O)[C@H](Cc1ccccc1)OC(=O)N(C)CCC(=O)N(C)C` [(6)] yielded a half-inhibitory concentration (IC50) of 41 nM.

`CC(C)CC[C@H](O)[C@H](CC1CCCCC1)NC(=O)[C@H](Cc1c[nH]cn1)N(C)C(=O)[C@H](Cc1ccccc1)OC(=O)N(C)CC(=O)N(C)C` [(7)] showed a 50% inhibitory concentration (IC50) of 40 nM.

As to `CC(C)CC[C@H](O)[C@H](CC1CCCCC1)NC(=O)[C@H](Cc1c[nH]cn1)N(C)C(=O)[C@H](Cc1ccccc1)OC(=O)N(C)CC(=O)NCc1ccncc1` [(8)], the IC50 amounted to 46 nM.

For the compound `CC(C)CC[C@H](O)[C@H](CC1CCCCC1)NC(=O)[C@H](Cc1c[nH]cn1)N(C)C(=O)[C@H](Cc1ccccc1)OC(=O)N1CCC[C@@H]1C(=O)N(C)C` [(9)], half-maximal inhibition (IC50) required 30 nM.

`CC(C)CC[C@H](O)[C@H](CC1CCCCC1)NC(=O)[C@H](Cc1c[nH]cn1)N(C)C(=O)[C@H](Cc1ccccc1)OC(=O)N1CC(=O)N2CCC[C@H]2C1` [(10)]: the IC50 was determined as 21 nM.

As for `CC(C)CC[C@H](O)[C@H](CC1CCCCC1)NC(=O)[C@H](Cc1c[nH]cn1)N(C)C(=O)[C@H](Cc1ccccc1)OC(=O)N1CCN(C)C(=O)C1` [(11)], the IC50 was determined as 19 nM.

As for `CC(C)CC[C@H](O)[C@H](CC1CCCCC1)NC(=O)[C@H](Cc1c[nH]cn1)N(C)C(=O)[C@H](Cc1ccccc1)OC(=O)N1CCNC(=O)C1` [(12)], the midpoint of inhibition, the IC50, lay at 29 nM.

`CC(C)CC[C@H](O)[C@H](CC1CCCCC1)NC(=O)[C@H](Cc1c[nH]cn1)N(C)C(=O)[C@H](Cc1ccccc1)OC(=O)N(C)CC(=O)OCC(C)C` [(13)] yielded an IC50 of 34 nM.

`CC(C)CC[C@H](O)[C@H](CC1CCCCC1)NC(=O)[C@H](Cc1c[nH]cn1)N(C)C(=O)[C@H](Cc1ccccc1)OC(=O)N(C)CC(=O)OCCc1ccccc1` [(14)] yielded an IC50 of 48 nM.

Turning to `CC(=O)COC(=O)CN(C)C(=O)O[C@@H](Cc1ccccc1)C(=O)N(C)[C@@H](Cc1c[nH]cn1)C(=O)N[C@@H](CC1CCCCC1)[C@@H](O)CCC(C)C` [(15)], inhibition was half-maximal at 33 nM (IC50).

`CCOC(=O)CNC(=O)CCN(C)C(=O)O[C@@H](Cc1ccccc1)C(=O)N(C)[C@@H](Cc1c[nH]cn1)C(=O)N[C@@H](CC1CCCCC1)[C@@H](O)CCC(C)C` [(16)] yielded an IC50 of 38 nM.

For the compound `CC(C)CC[C@H](O)[C@H](CC1CCCCC1)NC(=O)[C@H](Cc1c[nH]cn1)N(C)C(=O)[C@H](Cc1ccccc1)OC(=O)N(C)CCC(=O)NCc1ccccn1` [(17)], the half-maximal inhibitory concentration (IC50) stood at 33 nM.

Consider `CC(C)CC[C@H](O)[C@H](CC1CCCCC1)NC(=O)[C@H](Cc1c[nH]cn1)N(C)C(=O)[C@H](Cc1ccccc1)OC(=O)N(C)CCC(=O)N1CCSCC1` [(18)], for which the concentration for half-maximal inhibition (IC50) worked out at 30 nM.

`CC(C)CC[C@H](O)[C@H](CC1CCCCC1)NC(=O)[C@H](Cc1c[nH]cn1)NC(=O)[C@H](Cc1ccccc1)OC(=O)N(C)CCC(=O)N1CCOCC1` [(19)]: the IC50 came out at 4.8 nM.

In the case of `CC(C)CC[C@H](O)[C@H](CC1CCCCC1)NC(=O)[C@H](Cc1c[nH]cn1)N(C)C(=O)[C@H](Cc1ccccc1)OC(=O)N(C)N(C)C(=O)OCC(C)C` [(20)], inhibition was half-maximal at 70 nM (IC50).

`CC(C)CC[C@H](O)[C@H](CC1CCCCC1)NC(=O)[C@H](Cc1c[nH]cn1)N(C)C(=O)[C@H](Cc1ccccc1)OC(=O)N(C)N(C)C(=O)NC(C)C` [(21)] showed an IC50 of 43 nM.

`CC(C)CC[C@H](O)[C@H](CC1CCCCC1)NC(=O)[C@H](Cc1c[nH]cn1)N(C)C(=O)[C@H](Cc1ccccc1)OC(=O)N1CCCN1C(=O)NC(C)C` [(22)] had an IC50 of 63 nM.

In turn, `CC(C)CC[C@H](O)[C@H](CC1CCCCC1)NC(=O)[C@H](Cc1c[nH]cn1)N(C)C(=O)[C@H](Cc1ccccc1)OC(=O)N(C)CCN(C)C(=O)CC(C)C` [(25)] displayed an IC50 of 14 nM.

Turning to `CC(C)CC[C@H](O)[C@H](CC1CCCCC1)NC(=O)[C@H](Cc1c[nH]cn1)N(C)C(=O)[C@H](Cc1ccccc1)OC(=O)N(C)CCC(=O)N(C)c1ccccc1` [(26)], the half-maximal inhibitory concentration (IC50) is 24 nM.

Compound `CC(C)CC[C@H](O)[C@H](CC1CCCCC1)NC(=O)[C@H](Cc1c[nH]cn1)N(C)C(=O)[C@H](Cc1ccccc1)OC(=O)N(C)CCC(=O)N(C)CC(C)C` [(27)] yielded an IC50 of 46 nM.

Compound `CC(C)CC[C@H](O)[C@H](CC1CCCCC1)NC(=O)[C@H](Cc1c[nH]cn1)N(C)C(=O)[C@H](Cc1ccccc1)OC(=O)N1CCCC(=O)C1` [(28)] had a 50% inhibitory concentration (IC50) of 44 nM.

Regarding `CC(C)CC[C@H](O)[C@H](CC1CCCCC1)NC(=O)[C@H](Cc1c[nH]cn1)N(C)C(=O)[C@H](Cc1ccccc1)OC(=O)N(C)CCCCC(=O)N(C)C(C)C` [(29)], half-maximal inhibition (IC50) required 16 nM.

`CC(C)CC[C@H](O)[C@H](CC1CCCCC1)NC(=O)[C@H](Cc1c[nH]cn1)N(C)C(=O)[C@H](Cc1ccccc1)OC(=O)N(C)CCCCC(=O)NC(C)C` [(30)]: the midpoint of inhibition, the IC50, lay at 6.4 nM.

`CC(C)CC[C@H](O)[C@H](CC1CCCCC1)NC(=O)[C@H](Cc1c[nH]cn1)N(C)C(=O)[C@H](Cc1ccccc1)OC(=O)N(C)CCCN(C)C(=O)N1CCOCC1` [(31)] gave a half-inhibitory concentration (IC50) of 13 nM.

`CC(C)CC[C@H](O)[C@H](CC1CCCCC1)NC(=O)[C@H](Cc1c[nH]cn1)N(C)C(=O)[C@H](Cc1ccccc1)OC(=O)N(C)CCCC(=O)N1CCOCC1` [(32)] came in with an IC50 of 15 nM.

Regarding `CC(C)CC[C@H](O)[C@H](CC1CCCCC1)NC(=O)[C@H](Cc1c[nH]cn1)N(C)C(=O)[C@H](Cc1ccccc1)OC(=O)N(C)CCCC(=O)N(C)C(C)C` [(33)], the IC50 was found to be 17 nM.

In turn, `CC(C)CC[C@H](O)[C@H](CC1CCCCC1)NC(=O)[C@H](Cc1c[nH]cn1)N(C)C(=O)[C@H](Cc1ccccc1)OC(=O)N(C)CCCCN(C)C(=O)N1CCOCC1` [(34)] yielded an IC50 of 7.5 nM.

As for `CC(C)CC[C@H](O)[C@H](CC1CCCCC1)NC(=O)[C@H](Cc1c[nH]cn1)N(C)C(=O)[C@H](Cc1ccccc1)OC(=O)N(C)CCCCC(=O)N1CCOCC1` [(35)], half-maximal inhibition (IC50) required 5.3 nM.

In the case of `CC(C)CC[C@H](O)[C@H](CC1CCCCC1)NC(=O)[C@H](Cc1c[nH]cn1)NC(=O)[C@H](Cc1ccccc1)OC(=O)N(C)N(C)C(=O)N1CCOCC1` [(36)], the IC50 turned out to be 9.8 nM.

Take `CC(C)CC[C@H](O)[C@H](CC1CCCCC1)NC(=O)[C@H](Cc1c[nH]cn1)N(C)C(=O)[C@H](Cc1ccccc1)OC(=O)N(C)CCC(=O)N(C)CCc1ccccn1` [(37)]: 38 nM corresponded to half-maximal inhibition (IC50).

As to `CC(C)CC[C@H](O)[C@H](CC1CCCCC1)NC(=O)[C@H](Cc1c[nH]cn1)N(C)C(=O)[C@H](Cc1ccccc1)OC(=O)N(C)CCC(=O)N1CC=CCC1` [(38)], the midpoint of inhibition, the IC50, lay at 44 nM.

In turn, `CC(C)CC[C@H](O)[C@H](CC1CCCCC1)NC(=O)[C@H](Cc1c[nH]cn1)N(C)C(=O)[C@H](Cc1ccccc1)OC(=O)N(C)CCC(=O)NC(C)C` [(39)] registered an IC50 of 37 nM.

In the case of `CC(C)CC[C@H](O)[C@H](CC1CCCCC1)NC(=O)[C@H](Cc1c[nH]cn1)N(C)C(=O)[C@H](Cc1ccccc1)OC(=O)N(C)CCS(=O)(=O)C(C)C` [(40)], half-maximal inhibition (IC50) was put at 57 nM.
